# Test system: ADP-induced human platelet aggregation
# Test: Inhibition of ADP-mediated platelet aggregation in vitro (PRP assay)
# Type: cell-based
# Conditions: 2 μM ADP, 96-well microtiter assay
# Experimental: I. Inhibition of ADP-Mediated Platelet Aggregation In Vitro
# The effect of testing the compound according to the invention on ADP-induced human platelet aggregation is preferably assessed in 96-well microtiter assay (see generally the procedures in Jantzen, H. M. et al. (1999) Thromb. Hemost. 81:111–117). Human venous blood is collected from healthy, drug-free volunteers into ACD (85 mM sodium citrate, 111 mM glucose, 71.4 mM citric acid) containing PGI2 (1.25 ml ACD containing 1.6 μM PGI2/10 ml blood; PGI2 was from Sigma, St. Louis, Mo.). Platelet-rich plasma (PRP) is prepared by centrifugation at 160×g for 20 minutes at room temperature. Washed platelets are prepared by centrifuging PRP for 10 minutes at 730×g and resuspending the platelet pellet in CGS (13 mM sodium citrate, 30 mM glucose, 120 mM NaCl; 2 ml CGS/10 ml original blood volume) containing 1U/ml apyrase (grade V, Sigma, St. Louis, Mo.). After incubation at 37° C. for 15 minutes, the platelets are collected by centrifugation at 730×g for 10 minutes and resuspended at a concentration of 3×10^8 platelets/ml in Hepes-Tyrode's buffer (10 mM Hepes, 138 mM NaCl, 5.5 mM glucose, 2.9 mM KCl, 12 mM NaHCO3, pH 7.4) containing 0.1% bovine serum albumin, 1 mM CaCl2 and 1 mM MgCl2. This platelet suspension is kept >45 minutes at 37° C. before use in aggregation assays.
# Inhibition of ADP-dependent aggregation is preferably determined in 96-well flat-bottom microtiter plates using a microtiter plate shaker and plate reader similar to the procedure described by Frantantoni et al., Am. J. Clin. Pathol. 94, 613 (1990). All steps are performed at room temperature. The total reaction volume of 0.2 ml/well includes in Hepes-Tyrodes buffer/0.1% BSA: 4.5×10^7 apyrase-washed platelets, 0.5 mg/ml human fibrinogen (American Diagnostica, Inc., Greenwich, Conn.), serial dilutions of test compounds (buffer for control wells) in 0.6% DMSO. After about 5 minutes preincubation at room temperature, ADP is added to a final concentration of 2 μM which induces submaximal aggregation. Buffer is added instead of ADP to one set of control wells (ADP^− control). The OD of the samples is then determined at 490 nm using a microtiter plate reader (Softmax, Molecular Devices, Menlo Park, Calif.) resulting in the 0 minute reading. The plates are then agitated for 5 min on a microtiter plate shaker and the 5 minute reading is obtained in the plate reader. Aggregation is calculated from the decrease of OD at 490 nm at t=5 minutes compared to t=0 minutes and is expressed as % of the decrease in the ADP control samples after correcting for changes in the unaggregated control samples.
# The table below provides activity for selected compounds of the invention, evaluated as described above. In the table below, activity in the PRP assay is provided as follows: +++, IC50<10 μM; ++, 10 μM<IC50<30 μM; and +, IC50>30 μM.
row,SMILES,IC50 [µM]
1,O=C(Nc1ccc(-n2c(=O)[nH]c3cc(NCc4ccccc4)ccc3c2=O)cc1)NS(=O)(=O)c1ccc(Cl)s1 [Example 3],< 10
2,"Cc1cc(-n2c(=O)[nH]c3cc(NCc4ccc(F)cc4)ccc3c2=O)ccc1NC(=O)NS(=O)(=O)c1ccc(Cl)s1 [Example 5, 1-(4-(7-(4-fluorobenzylamino)-2,4-dioxo-1,2-dihydroquinazolin-3(4H)-yl)-2-methylphenyl)-3-(5-chlorothiophen-2-ylsulfonyl)urea]",< 10
3,O=C(Nc1ccc(-n2c(=O)[nH]c3cc(NCc4ccc(Cl)cc4)ccc3c2=O)cc1)NS(=O)(=O)c1ccc(Cl)s1 [Example 12],< 10
4,Cc1cc(NC(=O)NS(=O)(=O)c2cccs2)ccc1-n1c(=O)[nH]c2cc(NCc3ccc(Cl)cc3)ccc2c1=O [Example 16],< 10
5,O=C(Nc1ccc(-n2c(=O)[nH]c3cc(NCc4ccc(F)cc4)ccc3c2=O)cc1)NS(=O)(=O)c1ccc(Cl)s1 [Example 21],< 10
6,COc1cccc(CNc2ccc3c(=O)n(-c4ccc(NC(=O)NS(=O)(=O)c5ccc(Cl)s5)cc4)c(=O)[nH]c3c2)c1 [Example 41],10 to 30
7,O=C(Nc1ccc(-n2c(=O)[nH]c3cc(NCc4ccc(Cl)s4)ccc3c2=O)cc1)NS(=O)(=O)c1ccc(Cl)s1 [Example 51],< 10
8,Cc1csc(CNc2ccc3c(=O)n(-c4ccc(NC(=O)NS(=O)(=O)c5ccc(Cl)s5)cc4)c(=O)[nH]c3c2)c1 [Example 53],10 to 30
9,O=C(Nc1ccc(-n2c(=O)[nH]c3cc(NCc4ccsc4)ccc3c2=O)cc1)NS(=O)(=O)c1ccc(Cl)s1 [Example 57],< 10
10,O=C(Nc1ccc(-n2c(=O)[nH]c3cc(NCc4cncs4)ccc3c2=O)cc1)NS(=O)(=O)c1ccc(Cl)s1 [Example 61],10 to 30
11,Cc1nc(C)c(CNc2ccc3c(=O)n(-c4ccc(NC(=O)NS(=O)(=O)c5ccc(Cl)s5)cc4)c(=O)[nH]c3c2)s1 [Example 65],> 30
12,O=C(Nc1ccc(-n2c(=O)[nH]c3cc(NCc4ccc(Cl)o4)ccc3c2=O)cc1)NS(=O)(=O)c1ccc(Cl)s1 [Example 72],10 to 30
13,Cn1ccnc1CNc1ccc2c(=O)n(-c3ccc(NC(=O)NS(=O)(=O)c4ccc(Cl)s4)cc3)c(=O)[nH]c2c1 [Example 77],> 30
14,O=C(Nc1ccc(-n2c(=O)[nH]c3cc(NCc4nc5ccccc5s4)ccc3c2=O)cc1)NS(=O)(=O)c1ccc(Cl)s1 [Example 94],> 30
15,Cc1c(F)cccc1CNc1ccc2c(=O)n(-c3ccc(NC(=O)NS(=O)(=O)c4ccc(Cl)s4)cc3)c(=O)[nH]c2c1 [Example 100],< 10
16,O=C(Nc1ccc(-n2c(=O)[nH]c3cc(NCc4ccc(F)cc4F)ccc3c2=O)cc1)NS(=O)(=O)c1ccc(Cl)s1 [Example 102],> 30
17,"O=C(NS(=O)(=O)c1ccc(Cl)s1)c1ccc(-n2c(=O)[nH]c3cc(NCc4ccc(F)cc4)ccc3c2=O)cc1 [Example 106, 4-(7-(4-fluorobenzylamino)-2,4-dioxo-1,2-dihydroquinazolin-3(4H)-yl)-N-(5-chlorothiophen-2-ylsulfonyl)benzamide]",< 10
18,"O=C(NS(=O)(=O)c1ccc(Cl)s1)c1ccc(-n2c(=O)[nH]c3cc(NCc4ccc(F)cc4)ccc3c2=O)cc1F [Example 113, 4-(7-(4-fluorobenzylamino)-2,4-dioxo-1,2-dihydroquinazolin-3(4H)-yl)-N-(5-chlorothiophen-2-ylsulfonyl)-2-fluorobenzamide]",< 10
